{
  "source": "patent US20250213534A1",
  "about": "“5-METHOXY-N,N-[…][…] THE TREATMENT OF COGNITIVE DYSFUNCTION” (GH RESEARCH IRELAND LIMITED, priority 2022, published 2025)",
  "key": {"[1]": {"assay": "Pharmacokinetics after single dose via inhalation (LC-MS/MS)", "assay_type": "in vivo, human", "details": "after 3 hours; whole dose range 6, 12, 18 mg"}, "[2]": {"tested_on": "patients with postpartum depression (PPD)", "assay": "Clinical trial of 5-MeO-DMT via inhalation (individualized dosing regimen) in postpartum depression", "details": "n=1", "description": "The single-arm, open-label clinical trial will involve 15 adult female patients with clinically diagnosed postpartum depression (PPD).\nThe second dose (12 mg) will only be administered if: • a. A peak experience (total score of ⋅75) has not been achieved following the 6 mg dose, and • b. The 6 mg dose was safe and well-tolerated according to the investigator, • c. Any psychoactive effects (PsE) of the prior dose have subsided, and • d. Pre-dose vital parameters and forced expiratory volume in one second (FEV1) are in normal range, or if outside of the normal range, are not clinically significant according to the investigator. • 3. Similarly, a third dose (18 mg) will only be administered if: • a. A peak experience (total score of ⋅75) has not been achieved following the 12 mg dose, and • b. The 12 mg dose was safe and well-tolerated according to the investigator, and • c. Any PsE of the prior dose have subsided, and • d. Pre-dose vital parameters and forced expiratory volume in one second (FEV1) are in normal range, or if outside of the normal range, are not clinically significant according to the investigator.\nThe patients will be assessed for a peak psychedelic experience (based on a patient-scored visual analogue scale, the PE scale), sedation, and other endpoints after dosing. Follow-up visits are planned for Day 1, and Day 7 after the dosing day.\nThe following criteria must be met by all patients considered for clinical trial participation: • 1. Is female and in the age range between 18 and 45 years (inclusive) at screening. • 2. Has a body mass index (BMI) in the range of 18.5 and 35 kg/m^2 (inclusive) at screening. • 3. Meets the trial criteria for PPD as assessed by a trial psychiatrist or registered psychologist: • a. Diagnosis of Major Depressive Disorder without psychotic features, confirmed by the Mini-International Neuropsychiatric Interview (MINI), with peri-partum onset that began no earlier than gestation and no later than the first 4 weeks postpartum. • b. Has a Montgomery-Åsberg Depression Rating Scale (MADRS) total score of equal to or greater than 28 at screening and pre-dose on Day 0. • 6. […] Patients must have a negative pregnancy test at screening and on the pre-test day (Day −1). • 5. Is willing to delay start of other antidepressant or anxiety medication until after the end of the trial at Day 7 and agrees to keep any psychotherapy unchanged during the trial."}, "[3]": {"tested_on": "Salmonella typhimurium (TA98, TA100, TA1535 and TA1537)", "assay": "Bacterial mutation test", "assay_type": "cell-based", "details": "up to 5000 μg/plate; absence and presence of rat liver S-9", "description": "(§1) These conditions included treatments at concentrations up to 5000 μg/plate (the maximum recommended concentration according to current regulatory guidelines), in the absence and in the presence of a rat liver metabolic activation system (S-9)."}, "[4]": {"tested_on": "Escherichia coli (WP2 uvrA pKM101)", "assay": "Bacterial mutation test", "assay_type": "cell-based", "details": "up to 5000 μg/plate; absence and presence of rat liver S-9", "description": "as §1"}},
  "data": [
    {"smiles": "COc1ccc2[nH]cc(CCN(C)C)c2c1", "note": "[5-MeO-DMT]", "values": [
      {"measurement": "Detectability in the plasma", "setting": "[1]", "value": "no longer detectable"},
      {"measurement": "Inhalation-related adverse events", "setting": "[2]", "value": "no inhalation-related adverse events"},
      {"measurement": "MADRS remission (MADRS total score equal or less than 10)", "setting": "[2]", "value": "fulfilled"},
      {"measurement": "MADRS response (at least 50% improvement from baseline)", "setting": "[2]", "value": "fulfilled"},
      {"measurement": "Reported adverse events (cramping left abdominal pain and headache, Day 0)", "setting": "[2]", "value": "mild, short-lasting and resolved spontaneously"},
      {"measurement": "BIMF total score improvement", "setting": "[2]; Day 7, from 92 to 105", "value": 14, "unit": "%"},
      {"measurement": "BIMF item 2 score: I feel rested", "setting": "[2]; Day 7, Day 0 0", "value": 2},
      {"measurement": "BIMF item 19 score: As time goes on, I am getting better at taking care of my baby", "setting": "[2]; Day 7, Day 0 0", "value": 1},
      {"measurement": "BIMF item 18 score: Anxiety or worry often interferes with my mothering ability", "setting": "[2]; Day 7, Day 0 2", "value": 5},
      {"measurement": "BIMF item 16 score: I worry about how other people judge me (as a mother)", "setting": "[2]; Day 7, Day 0 3", "value": 5},
      {"measurement": "BIMF item 13 score: I am taking good care of my physical needs (eating, showering, etc)", "setting": "[2]; Day 7, Day 0 4", "value": 5},
      {"measurement": "BIMF item 4 score: My baby and I understand each other", "setting": "[2]; Day 7, Day 0 5", "value": 5},
      {"measurement": "BIMF item 5 score: I am able to relax and enjoy time with my baby", "setting": "[2]; Day 7, Day 0 5", "value": 6},
      {"measurement": "BIMF item 9 score: I am getting enough encouragement from other people", "setting": "[2]; Day 7, Day 0 5", "value": 6},
      {"measurement": "BIMF item 10 score: I trust my own feelings (instincts) when it comes to taking care of my baby", "setting": "[2]; Day 7, Day 0 5", "value": 6},
      {"measurement": "BIMF item 11 score: I take a little time each week to do something for myself", "setting": "[2]; Day 7, Day 0 5", "value": 6},
      {"measurement": "BIMF item 15 score: My baby and I are getting into a routine", "setting": "[2]; Day 7, Day 0 5", "value": 6},
      {"measurement": "BIMF item 17 score: I am able to take care of my baby and my other responsibilities", "setting": "[2]; Day 7, Day 0 5", "value": 5},
      {"measurement": "BIMF item 1 score: I am a good mother", "setting": "[2]; Day 7, Day 0 6", "value": 6},
      {"measurement": "BIMF item 3 score: I am comfortable with the way I've chosen to feed my baby (either bottle or breast, or both)", "setting": "[2]; Day 7, Day 0 6", "value": 6},
      {"measurement": "BIMF item 6 score: There are people in my life that I can trust to care for my baby when I need a break", "setting": "[2]; Day 7, Day 0 6", "value": 6},
      {"measurement": "BIMF item 8 score: I am getting enough adult interaction", "setting": "[2]; Day 7, Day 0 6", "value": 6},
      {"measurement": "BIMF item 12 score: I am taking good care of my baby's physical needs (feedings, changing diapers, doctor's appointments)", "setting": "[2]; Day 7, Day 0 6", "value": 6},
      {"measurement": "BIMF item 14 score: I make good decisions about my baby's health and well being", "setting": "[2]; Day 7, Day 0 6", "value": 6},
      {"measurement": "BIMF item 20 score: I am satisfied with the job I am doing as a new mother", "setting": "[2]; Day 7, Day 0 6", "value": 5},
      {"measurement": "BIMF item 1 Δ (Day 7)", "setting": "[2]; Day 7 vs Day 0", "value": 0},
      {"measurement": "BIMF item 2 Δ (Day 7)", "setting": "[2]; Day 7 vs Day 0", "value": 2},
      {"measurement": "BIMF item 3 Δ (Day 7)", "setting": "[2]; Day 7 vs Day 0", "value": 0},
      {"measurement": "BIMF item 4 Δ (Day 7)", "setting": "[2]; Day 7 vs Day 0", "value": 0},
      {"measurement": "BIMF item 5 Δ (Day 7)", "setting": "[2]; Day 7 vs Day 0", "value": 1},
      {"measurement": "BIMF item 6 Δ (Day 7)", "setting": "[2]; Day 7 vs Day 0", "value": 0},
      {"measurement": "BIMF item 7 Δ (Day 7)", "setting": "[2]; Day 7 vs Day 0", "value": 0},
      {"measurement": "BIMF item 8 Δ (Day 7)", "setting": "[2]; Day 7 vs Day 0", "value": 0},
      {"measurement": "BIMF item 9 Δ (Day 7)", "setting": "[2]; Day 7 vs Day 0", "value": 1},
      {"measurement": "BIMF item 10 Δ (Day 7)", "setting": "[2]; Day 7 vs Day 0", "value": 1},
      {"measurement": "BIMF item 11 Δ (Day 7)", "setting": "[2]; Day 7 vs Day 0", "value": 1},
      {"measurement": "BIMF item 12 Δ (Day 7)", "setting": "[2]; Day 7 vs Day 0", "value": 0},
      {"measurement": "BIMF item 13 Δ (Day 7)", "setting": "[2]; Day 7 vs Day 0", "value": 1},
      {"measurement": "BIMF item 14 Δ (Day 7)", "setting": "[2]; Day 7 vs Day 0", "value": 0},
      {"measurement": "BIMF item 15 Δ (Day 7)", "setting": "[2]; Day 7 vs Day 0", "value": 1},
      {"measurement": "BIMF item 16 Δ (Day 7)", "setting": "[2]; Day 7 vs Day 0", "value": 2},
      {"measurement": "BIMF item 17 Δ (Day 7)", "setting": "[2]; Day 7 vs Day 0", "value": 0},
      {"measurement": "BIMF item 18 Δ (Day 7)", "setting": "[2]; Day 7 vs Day 0", "value": 3},
      {"measurement": "BIMF item 19 Δ (Day 7)", "setting": "[2]; Day 7 vs Day 0", "value": 1},
      {"measurement": "BIMF item 20 Δ (Day 7)", "setting": "[2]; Day 7 vs Day 0", "value": "−1"},
      {"measurement": "Time to clinical remission after administration", "setting": "[2]; IDR 6 mg followed by 12 mg", "value": "≤ 2", "unit": "h"},
      {"measurement": "Induction of mutation", "setting": "[3]", "value": "did not induce mutation"},
      {"measurement": "Induction of mutation", "setting": "[4]", "value": "did not induce mutation"}
    ]}
  ]
}
